Measurements: ChEMBL document CHEMBL1201862, “PubChem BioAssay data set” (2004)
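Cells were grown in 96-well plates and exposed to each compound for 48 hours at five concentrations; endpoints were interpolated linearly between bracketing concentrations, or set to the highest concentration if not reached. At the GI50, growth is halved.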 Activity calls are given as the source filed them. Cut-off read from the data, not from the text of the source: active = GI50 up to about 1.1 µM and inactive = higher.

What was measured:
Experiment in all cases: inhibition of tumour cell growth, NCI panel, 48 h
786-0 = tested on: 786-0
SK-MEL-5 = tested on: SK-MEL-5
NCI-H23 = tested on: NCI-H23
HCT-15 = tested on: HCT-15
SK-MEL-2 = tested on: SK-MEL-2
SNB-75 = tested on: SNB-75
SF-268 = tested on: SF-268
DU-145 = tested on: DU-145
LOX IMVI = tested on: LOX IMVI
KM12 = tested on: KM12
CCRF-CEM = tested on: CCRF-CEM
CAKI-1 = tested on: CAKI-1
NCI-H460 = tested on: NCI-H460
SK-OV-3 = tested on: SK-OV-3
M14 = tested on: M14
Hs-578T = tested on: Hs-578T
MDA-MB-435 = tested on: MDA-MB-435
ACHN = tested on: ACHN
MCF7 = tested on: MCF7
NCI-H522 = tested on: NCI-H522
NCI/ADR-RES = tested on: NCI/ADR-RES
UO-31 = tested on: UO-31
OVCAR-8 = tested on: OVCAR-8
RXF 393 = tested on: RXF 393
U-251 = tested on: U-251
HCC 2998 = tested on: HCC 2998
MDA-N = tested on: MDA-N
COLO 205 = tested on: COLO 205
SW-620 = tested on: SW-620
NCI-H226 = tested on: NCI-H226
SN12C = tested on: SN12C
MDA-MB-231 = tested on: MDA-MB-231
TK-10 = tested on: TK-10
SF-295 = tested on: SF-295
HOP-62 = tested on: HOP-62
Malme-3M = tested on: Malme-3M
MOLT-4 = tested on: MOLT-4
IGROV-1 = tested on: IGROV-1
OVCAR-4 = tested on: OVCAR-4
K562 = tested on: K562
SNB-19 = tested on: SNB-19
A549 = tested on: A549
UACC-62 = tested on: UACC-62
HT-29 = tested on: HT-29
BT-549 = tested on: BT-549
OVCAR-5 = tested on: OVCAR-5
A498 = tested on: A498
UACC-257 = tested on: UACC-257
OVCAR-3 = tested on: OVCAR-3
EKVX = tested on: EKVX
PC-3 = tested on: PC-3
HCT-116 = tested on: HCT-116
SK-MEL-28 = tested on: SK-MEL-28
HOP-92 = tested on: HOP-92
SR = tested on: SR
HL-60 = tested on: HL-60
SF-539 = tested on: SF-539
RPMI-8226 = tested on: RPMI-8226

In the case of COC(=O)c1sc(=S)sc1SCc1ccccc1CSc1sc(=S)sc1C(=O)OC, the GI50 (786-0) is reported as 46.1 µM (inactive), the GI50 (SK-MEL-5) is reported as > 100 µM (inactive) and the GI50 (NCI-H23) is reported as > 100 µM (inactive). The GI50 (HCT-15) was over 100 µM, the GI50 (SK-MEL-2) was > 100 µM (inactive) and the GI50 (SNB-75) was 38.6 µM (inactive). For the same molecule, the GI50 (SF-268) was > 100 µM (inactive), the GI50 (DU-145) was > 100 µM (inactive) and the GI50 (LOX IMVI) was > 100 µM (inactive). The GI50 (KM12) was > 100 µM (inactive), the GI50 (CCRF-CEM) was 27.5 µM (inactive) and the GI50 (CAKI-1) was > 100 µM (inactive). The GI50 (NCI-H460) was > 100 µM (inactive), the GI50 (SK-OV-3) was 46.6 µM (inactive) and the GI50 (M14) was > 100 µM (inactive). For the same molecule, the GI50 (Hs-578T) was > 100 µM (inactive), the GI50 (MDA-MB-435) was > 100 µM (inactive) and the GI50 (ACHN) was > 100 µM (inactive). For the same molecule, the GI50 (MCF7) was > 100 µM (inactive), the GI50 (NCI-H522) was > 100 µM (inactive) and the GI50 (NCI/ADR-RES) was > 100 µM (inactive). For the same molecule, the GI50 (UO-31) was > 100 µM (inactive), the GI50 (OVCAR-8) was > 100 µM (inactive) and the GI50 (RXF 393) was 44.3 µM (inactive). For the same molecule, the GI50 (U-251) was > 100 µM (inactive), the GI50 (HCC 2998) was > 100 µM (inactive) and the GI50 (MDA-N) was > 100 µM (inactive). The GI50 (COLO 205) was > 100 µM (inactive), the GI50 (SW-620) was > 100 µM (inactive) and the GI50 (NCI-H226) was > 100 µM (inactive). The GI50 (SN12C) was > 100 µM (inactive), the GI50 (MDA-MB-231) was > 100 µM (inactive) and the GI50 (TK-10) was > 100 µM (inactive). The GI50 (SF-295) was 58.9 µM (inactive), the GI50 (HOP-62) was 85.7 µM (inactive) and the GI50 (Malme-3M) was > 100 µM (inactive). For the same molecule, the GI50 (MOLT-4) was > 100 µM (inactive), the GI50 (IGROV-1) was > 100 µM (inactive) and the GI50 (OVCAR-4) was > 100 µM (inactive). For the same molecule, the GI50 (K562) was 38.5 µM (inactive), the GI50 (SNB-19) was 77.1 µM (inactive) and the GI50 (A549) was > 100 µM (inactive). The GI50 (UACC-62) was > 100 µM (inactive), the GI50 (HT-29) was > 100 µM (inactive) and the GI50 (BT-549) was > 100 µM (inactive). The GI50 (OVCAR-5) was > 100 µM (inactive), the GI50 (A498) was > 100 µM (inactive) and the GI50 (UACC-257) was > 100 µM (inactive). The GI50 (OVCAR-3) was > 100 µM (inactive), the GI50 (EKVX) was > 100 µM (inactive) and the GI50 (PC-3) was > 100 µM (inactive). For the same molecule, the GI50 (HCT-116) was > 100 µM (inactive), the GI50 (SK-MEL-28) was > 100 µM (inactive) and the GI50 (HOP-92) was > 100 µM (inactive).
For Cc1nn(C)c2c1C(=O)N(C)CC(=O)N2C, the GI50 (786-0) was > 100 µM (inactive), the GI50 (SK-MEL-5) was > 100 µM (inactive) and the GI50 (NCI-H23) was > 100 µM (inactive). The GI50 (HCT-15) was 69.7 µM, the GI50 (SNB-75) was > 100 µM (inactive) and the GI50 (SF-268) was > 100 µM (inactive). The GI50 (DU-145) was > 100 µM (inactive), the GI50 (SR) was > 100 µM (inactive) and the GI50 (KM12) was > 100 µM (inactive). The GI50 (CCRF-CEM) was > 100 µM (inactive), the GI50 (CAKI-1) was > 100 µM (inactive) and the GI50 (NCI-H460) was > 100 µM (inactive). For the same molecule, the GI50 (SK-OV-3) was > 100 µM (inactive), the GI50 (M14) was > 100 µM (inactive) and the GI50 (Hs-578T) was > 100 µM (inactive). The GI50 (MDA-MB-435) was > 100 µM (inactive), the GI50 (ACHN) was > 100 µM (inactive) and the GI50 (MCF7) was > 100 µM (inactive). For the same molecule, the GI50 (NCI-H522) was > 100 µM (inactive), the GI50 (UO-31) was > 100 µM (inactive) and the GI50 (OVCAR-8) was > 100 µM (inactive). For the same molecule, the GI50 (RXF 393) was > 100 µM (inactive), the GI50 (U-251) was > 100 µM (inactive) and the GI50 (HCC 2998) was > 100 µM (inactive). The GI50 (MDA-N) was > 100 µM (inactive), the GI50 (COLO 205) was > 100 µM (inactive) and the GI50 (SW-620) was > 100 µM (inactive). The GI50 (SN12C) was > 100 µM (inactive), the GI50 (TK-10) was > 100 µM (inactive) and the GI50 (SF-295) was > 100 µM (inactive). For the same molecule, the GI50 (HOP-62) was > 100 µM (inactive), the GI50 (Malme-3M) was > 100 µM (inactive) and the GI50 (MOLT-4) was > 100 µM (inactive). For the same molecule, the GI50 (HL-60) was > 100 µM (inactive), the GI50 (IGROV-1) was > 100 µM (inactive) and the GI50 (OVCAR-4) was > 100 µM (inactive). For the same molecule, the GI50 (K562) was > 100 µM (inactive), the GI50 (SNB-19) was > 100 µM (inactive) and the GI50 (SF-539) was > 100 µM (inactive). The GI50 (A549) was > 100 µM (inactive), the GI50 (UACC-62) was > 100 µM (inactive) and the GI50 (HT-29) was > 100 µM (inactive). For the same molecule, the GI50 (BT-549) was > 100 µM (inactive), the GI50 (OVCAR-5) was > 100 µM (inactive) and the GI50 (A498) was > 100 µM (inactive). The GI50 (UACC-257) was > 100 µM (inactive), the GI50 (OVCAR-3) was > 100 µM (inactive) and the GI50 (EKVX) was > 100 µM (inactive). For the same molecule, the GI50 (PC-3) was > 100 µM (inactive), the GI50 (HCT-116) was > 100 µM (inactive) and the GI50 (SK-MEL-28) was > 100 µM (inactive). The GI50 (HOP-92) was > 100 µM (inactive) and the GI50 (RPMI-8226) was > 100 µM (inactive).
In the case of COc1ccc(-c2c(C#N)c(O)n(NS(=O)(=O)c3ccc(C)cc3)c(=O)c2C#N)cc1, the GI50 (786-0) is reported as 67.1 µM (inactive), the GI50 (SK-MEL-5) is reported as 42.1 µM (inactive) and the GI50 (HCT-15) is reported as 49.1 µM. The GI50 (SK-MEL-2) was > 100 µM (inactive), the GI50 (SNB-75) was > 100 µM (inactive) and the GI50 (SF-268) was > 100 µM (inactive). The GI50 (LOX IMVI) was 45.4 µM (inactive), the GI50 (KM12) was > 100 µM (inactive) and the GI50 (CCRF-CEM) was 33.4 µM (inactive). For the same molecule, the GI50 (CAKI-1) was > 100 µM (inactive), the GI50 (NCI-H460) was 46.2 µM (inactive) and the GI50 (SK-OV-3) was > 100 µM (inactive). The GI50 (M14) was > 100 µM (inactive), the GI50 (Hs-578T) was > 100 µM (inactive) and the GI50 (MDA-MB-435) was 75 µM (inactive). The GI50 (ACHN) was 47.9 µM (inactive), the GI50 (MCF7) was 48.6 µM (inactive) and the GI50 (NCI-H522) was 13.8 µM (inactive). For the same molecule, the GI50 (NCI/ADR-RES) was 61.9 µM (inactive), the GI50 (OVCAR-8) was 70 µM (inactive) and the GI50 (RXF 393) was 66.5 µM (inactive). The GI50 (U-251) was 67.8 µM (inactive), the GI50 (HCC 2998) was 45.9 µM (inactive) and the GI50 (MDA-N) was 77.8 µM (inactive). For the same molecule, the GI50 (COLO 205) was > 100 µM (inactive), the GI50 (SW-620) was 57.4 µM (inactive) and the GI50 (NCI-H226) was > 100 µM (inactive). The GI50 (SN12C) was > 100 µM (inactive), the GI50 (MDA-MB-231) was > 100 µM (inactive) and the GI50 (TK-10) was 79.3 µM (inactive). The GI50 (SF-295) was 75 µM (inactive), the GI50 (HOP-62) was 99.3 µM (inactive) and the GI50 (Malme-3M) was 70.6 µM (inactive). For the same molecule, the GI50 (MOLT-4) was 20.5 µM (inactive), the GI50 (HL-60) was 37.1 µM (inactive) and the GI50 (IGROV-1) was 35.8 µM (inactive). The GI50 (OVCAR-4) was 81.5 µM (inactive), the GI50 (SNB-19) was 83.2 µM (inactive) and the GI50 (SF-539) was 67.8 µM (inactive). For the same molecule, the GI50 (A549) was 91.8 µM (inactive), the GI50 (UACC-62) was 81.7 µM (inactive) and the GI50 (HT-29) was > 100 µM (inactive). The GI50 (BT-549) was 54.8 µM (inactive), the GI50 (OVCAR-5) was > 100 µM (inactive) and the GI50 (A498) was 57.1 µM (inactive). The GI50 (UACC-257) was > 100 µM (inactive), the GI50 (EKVX) was 70.8 µM (inactive) and the GI50 (PC-3) was 71.4 µM (inactive). For the same molecule, the GI50 (HCT-116) was 56 µM (inactive), the GI50 (SK-MEL-28) was 82.8 µM (inactive) and the GI50 (HOP-92) was 4.71 µM (inactive). For the same molecule, the GI50 (RPMI-8226) was 19.5 µM (inactive).
